Measurements published in ChEMBL document CHEMBL4000200, “Structure-activity relationships of 4-hydroxy-4-biaryl-proline acylsulfonamide tripeptides: A series of potent NS3 protease inhibitors for the treatment of hepatitis C virus” (Bioorg Med Chem Lett, 2017).
pEC50, pIC50: −log10 of the molar value.

How the values were obtained:
[1] = Oral bioavailability in rat at 15 mg/kg after 24 hrs; format: ADME, organism-based; conditions: in vivo
[2] = tested on: Heart; experiment: Cardiotoxicity in Langendorff perfused rabbit heart assessed as heart rate at 10 uM perfused for 20 mins (reference value: -3 +/- 3%); format: toxicity, tissue-based, Oryctolagus cuniculus
[3] = Permeability of the compound at pH 7.4 by PAMPA; format: physicochemical; conditions: read-out: permeability
[4] = tested on: Heart; experiment: Cardiotoxicity in Langendorff perfused rabbit heart assessed as sinoatrial node recovery time at 10 uM perfused for 20 mins (reference value: 4 +/- 5%); format: toxicity, tissue-based, Oryctolagus cuniculus
[5] = AUC in rat at 15 mg/kg, po after 24 hrs; format: ADME, organism-based; design: dose 15 mg/kg, time < 24 hr, route oral; conditions: in vivo
[6] = Drug uptake in rat liver at 15 mg/kg, po after 24 hrs; format: ADME, organism-based; conditions: read-out: Drug uptake
[7] = AUC in id dosed rat plasma after 4 hrs; format: ADME, organism-based; design: time < 4 hr
[8] = Inhibition of HCV genotype 1a NS3/4A protease; design: species or system Hepatitis C virus subtype 1a
[9] = Drug uptake in id dosed rat liver after 4 hrs; format: ADME, organism-based; conditions: read-out: Drug uptake
[10] = Permeability of the compound at pH 5.5 by PAMPA; format: physicochemical; conditions: read-out: permeability
[11] = Half life in rat at 5 mg/kg, iv; format: ADME, organism-based; conditions: in vivo
[12] = tested on: Hepatitis C virus; experiment: Antiviral activity against HCV genotype 1b by cell based replicon assay; format: functional, Hepacivirus hominis
[13] = tested on: Heart; experiment: Cardiotoxicity in Langendorff perfused rabbit heart assessed as coronary flow at 10 uM perfused for 20 mins (reference value: -6 +/- 8%); format: toxicity, tissue-based, Oryctolagus cuniculus
[14] = tested on: Heart; experiment: Cardiotoxicity in Langendorff perfused rabbit heart assessed as sinoatrial node recovery time at 10 uM perfused for 10 mins (reference value: 3 +/- 1%); format: toxicity, tissue-based, Oryctolagus cuniculus
[15] = tested on: Heart; experiment: Cardiotoxicity in Langendorff perfused rabbit heart assessed as coronary flow at 10 uM perfused for 10 mins (reference value: -4 +/- 6%); format: toxicity, tissue-based, Oryctolagus cuniculus
[16] = Clearance in rat at 5 mg/kg, iv; format: ADME, organism-based; conditions: in vivo
[17] = tested on: Heart; experiment: Cardiotoxicity in Langendorff perfused rabbit heart assessed as heart rate at 10 uM perfused for 10 mins (reference value: -1 +/- 1%); format: toxicity, tissue-based, Oryctolagus cuniculus

| Structure (SMILES) | pIC50 [8] | pEC50 [12] | other results |
| --- | --- | --- | --- |
| C=C[C@@H]1C[C@]1(NC(=O)[C@@H]1C[C@@](OC)(c2ccc(-c3ccccc3)cc2)CN1C(=O)[C@@H](NC(=O)OC(C)(C)C)C(C)(C)C)C(=O)NS(=O)(=O)C1CC1 | 8.70 | 8.05 | bioavailability [1]: 58%; Activity [2]: -3%; Papp [3]: 438 nm/s; Activity [4]: 7%; AUC at 24 h [5]: 14.1 µM·h; concentration at 24 h [6]: 1.1 µM; AUC at 4 h [7]: 2.45 µM·h; concentration at 4 h [9]: 195000 ng/g; Papp [10]: 381 nm/s; half-life [11]: 4.6 h; Activity [13]: 20%; Activity [14]: 8%; Activity [15]: 27%; clearance [16]: 1.07 L/h/kg; Activity [17]: -6% |
| C=C[C@@H]1C[C@]1(NC(=O)[C@@H]1C[C@@](O)(c2ccc(-c3ccccn3)cc2)CN1C(=O)[C@@H](NC(=O)OC(C)(C)C)C(C)(C)C)C(=O)NS(=O)(=O)C1CC1 | 8.70 | 7.41 |  |
| C=C[C@@H]1C[C@]1(NC(=O)[C@@H]1C[C@@](O)(c2cc(C)cc(C)c2)CN1C(=O)[C@@H](NC(=O)OC(C)(C)C)C(C)(C)C)C(=O)NS(=O)(=O)C1CC1 | 7.10 | 5.19 |  |
| C=C[C@@H]1C[C@]1(NC(=O)[C@@H]1C[C@@](O)(c2nc3ccccc3s2)CN1C(=O)[C@@H](NC(=O)OC(C)(C)C)C(C)(C)C)C(=O)NS(=O)(=O)C1CC1 | 6.90 | 5.95 |  |
| C=C[C@@H]1C[C@]1(NC(=O)[C@@H]1CC(=O)CN1C(=O)[C@@H](NC(=O)OC(C)(C)C)C(C)(C)C)C(=O)NS(=O)(=O)C1CC1 | 5.41 | 4.15 |  |
| C=C[C@@H]1C[C@]1(NC(=O)[C@@H]1C[C@@](O)(c2ccc(C)c(F)c2)CN1C(=O)[C@@H](NC(=O)OC(C)(C)C)C(C)(C)C)C(=O)NS(=O)(=O)C1CC1 | 6.25 | 5.37 |  |
| C=C[C@@H]1C[C@]1(NC(=O)[C@@H]1C[C@@](O)(c2ccc(F)c(C)c2)CN1C(=O)[C@@H](NC(=O)OC(C)(C)C)C(C)(C)C)C(=O)NS(=O)(=O)C1CC1 | 6.87 | 5.11 |  |
| C=C[C@@H]1C[C@]1(NC(=O)[C@@H]1C[C@@](O)(c2cc(F)ccc2OC)CN1C(=O)[C@@H](NC(=O)OC(C)(C)C)C(C)(C)C)C(=O)NS(=O)(=O)C1CC1 | 6.14 | 5.40 |  |
| C=C[C@@H]1C[C@]1(NC(=O)[C@@H]1C[C@@](O)(c2ccc(OC)cc2)CN1C(=O)[C@@H](NC(=O)OC(C)(C)C)C(C)(C)C)C(=O)NS(=O)(=O)C1CC1 | 6.98 | 5.83 |  |
| C=C[C@@H]1C[C@]1(NC(=O)[C@@H]1C[C@@](O)(c2cccc(C)c2)CN1C(=O)[C@@H](NC(=O)OC(C)(C)C)C(C)(C)C)C(=O)NS(=O)(=O)C1CC1 | 7.12 | 5.49 |  |
| C=C[C@@H]1C[C@]1(NC(=O)[C@@H]1C[C@@](O)(c2cc(C)ccc2C)CN1C(=O)[C@@H](NC(=O)OC(C)(C)C)C(C)(C)C)C(=O)NS(=O)(=O)C1CC1 | 6.87 | 5.64 |  |
| C=CC[C@]1(O)C[C@@H](C(=O)N[C@]2(C(=O)NS(=O)(=O)C3CC3)C[C@H]2C=C)N(C(=O)[C@@H](NC(=O)OC(C)(C)C)C(C)(C)C)C1 | 5.82 | 4.52 |  |
| C=C[C@@H]1C[C@]1(NC(=O)[C@@H]1C[C@@](O)(c2cccc(Cl)c2)CN1C(=O)[C@@H](NC(=O)OC(C)(C)C)C(C)(C)C)C(=O)NS(=O)(=O)C1CC1 | 7.10 | 5.44 |  |
| C=C[C@@H]1C[C@]1(NC(=O)[C@@H]1C[C@@](O)(c2ccc(-c3ccccc3)cc2)CN1C(=O)[C@@H](NC(=O)OC(C)(C)C)C(C)(C)C)C(=O)NS(=O)(=O)C1CC1 | 8.40 | 7.59 to 7.66 | Activity [2]: -4%; Papp [3]: 211 nm/s; Activity [4]: 7%; AUC at 4 h [7]: 0.9 µM·h; concentration at 4 h [9]: 128 ng/g; Papp [10]: 79 nm/s; Activity [13]: -2%; Activity [14]: 2%; Activity [15]: 2%; Activity [17]: -2% |
| C=C[C@@H]1C[C@]1(NC(=O)[C@@H]1C[C@@](O)(c2cccc(OC)c2)CN1C(=O)[C@@H](NC(=O)OC(C)(C)C)C(C)(C)C)C(=O)NS(=O)(=O)C1CC1 | 7.28 | 5.43 |  |
| C=C[C@@H]1C[C@]1(NC(=O)[C@@H]1C[C@@](O)(c2ccc(F)cc2)CN1C(=O)[C@@H](NC(=O)OC(C)(C)C)C(C)(C)C)C(=O)NS(=O)(=O)C1CC1 | 6.72 | 5.61 |  |

| Structure (SMILES) | pIC50 [8] | pEC50 [12] | other results |
| --- | --- | --- | --- |
| C=C[C@@H]1C[C@]1(NC(=O)[C@@H]1C[C@@H](Oc2nccc3cc(OC)ccc23)CN1C(=O)[C@@H](NC(=O)OC(C)(C)C)C(C)(C)C)C(=O)NS(=O)(=O)C1CC1 | 8.70 to 9.00 |  | Activity [2]: -32%; Papp [3]: 178 nm/s; Activity [4]: 360%; AUC at 4 h [7]: 10.4 µM·h; concentration at 4 h [9]: 64700 ng/g; Papp [10]: 574 nm/s; Activity [13]: 10%; Activity [14]: 69%; Activity [15]: 12%; Activity [17]: -13% |
| C=C[C@@H]1C[C@]1(NC(=O)[C@@H]1C[C@@](O)(c2cccc(CN3CCOCC3)c2)CN1C(=O)[C@@H](NC(=O)OC(C)(C)C)C(C)(C)C)C(=O)NS(=O)(=O)C1CC1 | 6.79 | 5.46 |  |
| C=C[C@@H]1C[C@]1(NC(=O)[C@@H]1C[C@@](O)(c2ccccc2CN2CCOCC2)CN1C(=O)[C@@H](NC(=O)OC(C)(C)C)C(C)(C)C)C(=O)NS(=O)(=O)C1CC1 | 6.54 | 5.31 |  |
| C=C[C@@H]1C[C@]1(NC(=O)[C@@H]1C[C@@](O)(c2ccc3ccccc3c2)CN1C(=O)[C@@H](NC(=O)OC(C)(C)C)C(C)(C)C)C(=O)NS(=O)(=O)C1CC1 | 7.59 | 6.39 |  |
| C=C[C@@H]1C[C@]1(NC(=O)[C@@H]1C[C@@](O)(c2cccc(C(C)C)c2)CN1C(=O)[C@@H](NC(=O)OC(C)(C)C)C(C)(C)C)C(=O)NS(=O)(=O)C1CC1 | 6.15 | 5.08 |  |
| C=C[C@@H]1C[C@]1(NC(=O)[C@@H]1C[C@@](O)(c2ccccc2)CN1C(=O)[C@@H](NC(=O)OC(C)(C)C)C(C)(C)C)C(=O)NS(=O)(=O)C1CC1 | 6.85 | 5.63 |  |
| C=C[C@@H]1C[C@]1(NC(=O)[C@@H]1C[C@@](O)(c2ccc(-c3nccs3)cc2)CN1C(=O)[C@@H](NC(=O)OC(C)(C)C)C(C)(C)C)C(=O)NS(=O)(=O)C1CC1 | 8.70 | 7.39 |  |
| C=C[C@@H]1C[C@]1(NC(=O)[C@@H]1C[C@@](O)(c2ccc(-c3ccccc3OC)cc2)CN1C(=O)[C@@H](NC(=O)OC(C)(C)C)C(C)(C)C)C(=O)NS(=O)(=O)C1CC1 | 8.30 | 7.62 |  |
| C=C[C@@H]1C[C@]1(NC(=O)[C@@H]1C[C@@H](Oc2ncc(OC)c3ccc(Cl)cc23)CN1C(=O)[C@@H](NC(=O)OC(C)(C)C)C(C)(C)C)C(=O)NS(=O)(=O)C1CC1 |  |  | Activity [2]: -1%; Activity [4]: 4%; Activity [13]: -1%; Activity [14]: -1%; Activity [15]: -3%; Activity [17]: 1% |
| C=C[C@@H]1C[C@]1(NC(=O)[C@@H]1C[C@@](O)(c2cccc(-c3ccc(OC)cc3)c2)CN1C(=O)[C@@H](NC(=O)OC(C)(C)C)C(C)(C)C)C(=O)NS(=O)(=O)C1CC1 | 6.21 | 5.49 |  |
| C=C[C@@H]1C[C@]1(NC(=O)[C@@H]1C[C@@](O)(c2cccc(N(C)C)c2)CN1C(=O)[C@@H](NC(=O)OC(C)(C)C)C(C)(C)C)C(=O)NS(=O)(=O)C1CC1 | 6.02 | 5.47 |  |
| C=C[C@@H]1C[C@]1(NC(=O)[C@@H]1C[C@@](O)(c2ccc(Oc3ccccc3)cc2)CN1C(=O)[C@@H](NC(=O)OC(C)(C)C)C(C)(C)C)C(=O)NS(=O)(=O)C1CC1 | 7.30 | 6.58 |  |
| C=C[C@@H]1C[C@]1(NC(=O)[C@@H]1C[C@@](O)(c2cccc(F)c2)CN1C(=O)[C@@H](NC(=O)OC(C)(C)C)C(C)(C)C)C(=O)NS(=O)(=O)C1CC1 | 7.24 | 5.39 |  |
| C=C[C@@H]1C[C@]1(NC(=O)[C@@H]1C[C@@](O)(c2cccc(OC(C)C)c2)CN1C(=O)[C@@H](NC(=O)OC(C)(C)C)C(C)(C)C)C(=O)NS(=O)(=O)C1CC1 | 7.00 | 5.20 |  |
| C=C[C@@H]1C[C@]1(NC(=O)[C@@H]1C[C@@](O)(c2ccc(-n3cccc3)cc2)CN1C(=O)[C@@H](NC(=O)OC(C)(C)C)C(C)(C)C)C(=O)NS(=O)(=O)C1CC1 | 8.15 | 7.01 |  |
